Measurements taken from patent US20070173488A1, “Pyrazolothiazole Protein Kinase Modulators” (SGX Pharmaceuticals, Inc., priority 2005, published 2007).

target: Met (Homo sapiens, UniProt P08581); assay: Met phosphorylation assay in GTL16 cells; format: cell-based; design: endogenous in cells; host or cells: GTL16 cells; conditions: compound 1 hour, anti-Phospho-Met (Tyr1234/1235), read-out: Met Phosp.
Method: GTL16 cells were maintained in DMEM Medium supplemented with 10% fetal bovine serum (FBS) 2 mM L-Glutamine and 100 units penicillin/100 μg streptomycin, at 37° C. in 5% CO2.
Compounds were tested in the following assays in duplicate.
Met phosphorylation assay: GTL16 cells were plated out at […] cells per 60×15 mm dish (Falcon) in 3 mL of assay media. The following day compound at various concentrations were added in assay media and incubated for 1 hour at 37° C. 5% CO2. After 1 hour the media was aspirated, and the cells were washed once with 1×PBS. The PBS was aspirated and the cells were harvested in 100 μL of modified RIPA lysis buffer (Tris.Cl pH 7.4, 1% NP-40, 5 mM EDTA, 5 mM NaPP, 5 mM NaF, 150 mM NaCl, Protease inhibitor cocktail (Sigma), 1 mM PMSF, 2 mM NaVO4) and transferred to a 1.7 mL eppendorf tube and incubated on ice for 15 minutes. After lysis, the tubes were centrifuged (10 minutes, 14,000 g, 4° C.). Lysates were then transferred to a fresh eppendorf tube. The samples were diluted 1:2 (250,000 cells/tube) with 2×SDS PAGE loading buffer and heated for 5 minutes at 98° C. The lysates were separated on a NuPage 4-12% Bis-Tris Gel 1.0 mm×12 well (Invitrogen), at 200V, 400 mA for approximately 40 minutes. The samples were then transferred to a 0.45 micron Nitrocellulose membrane Filter Paper Sandwich (Invitrogen) for 1 hour at 75V, 400 mA. After transferring, the membranes were placed in blocking buffer for 1 hour at room temperature with gentle rocking. The blocking buffer was removed and a 1:500 dilution of anti-Phospho-Met (Tyr1234/1235) antibody (Cell Signaling Technologies Cat. # 3126L) in 5% BSA, 0.05% Tween 20 in 1×PBS was added and the blots were incubated overnight at room temperature. The following day the blots were washed three times with 1×PBS, 0.1% Tween20. A 1:3000 dilution of HRP conjugated goat anti-rabbit antibody (Jackson ImmunoResearch Laboratories Cat. # 111-035-003) in blocking buffer, was added and incubated for 1 hr at room temperature with gentle rocking. The blot was wash 3 times in PBS, 0.1% Tween20 and visualized by chemiluminescence with SuperSignal West Pico Chemiluminescent Substrate (Pierce #34078).

Met, sequence (P08581 25-1390): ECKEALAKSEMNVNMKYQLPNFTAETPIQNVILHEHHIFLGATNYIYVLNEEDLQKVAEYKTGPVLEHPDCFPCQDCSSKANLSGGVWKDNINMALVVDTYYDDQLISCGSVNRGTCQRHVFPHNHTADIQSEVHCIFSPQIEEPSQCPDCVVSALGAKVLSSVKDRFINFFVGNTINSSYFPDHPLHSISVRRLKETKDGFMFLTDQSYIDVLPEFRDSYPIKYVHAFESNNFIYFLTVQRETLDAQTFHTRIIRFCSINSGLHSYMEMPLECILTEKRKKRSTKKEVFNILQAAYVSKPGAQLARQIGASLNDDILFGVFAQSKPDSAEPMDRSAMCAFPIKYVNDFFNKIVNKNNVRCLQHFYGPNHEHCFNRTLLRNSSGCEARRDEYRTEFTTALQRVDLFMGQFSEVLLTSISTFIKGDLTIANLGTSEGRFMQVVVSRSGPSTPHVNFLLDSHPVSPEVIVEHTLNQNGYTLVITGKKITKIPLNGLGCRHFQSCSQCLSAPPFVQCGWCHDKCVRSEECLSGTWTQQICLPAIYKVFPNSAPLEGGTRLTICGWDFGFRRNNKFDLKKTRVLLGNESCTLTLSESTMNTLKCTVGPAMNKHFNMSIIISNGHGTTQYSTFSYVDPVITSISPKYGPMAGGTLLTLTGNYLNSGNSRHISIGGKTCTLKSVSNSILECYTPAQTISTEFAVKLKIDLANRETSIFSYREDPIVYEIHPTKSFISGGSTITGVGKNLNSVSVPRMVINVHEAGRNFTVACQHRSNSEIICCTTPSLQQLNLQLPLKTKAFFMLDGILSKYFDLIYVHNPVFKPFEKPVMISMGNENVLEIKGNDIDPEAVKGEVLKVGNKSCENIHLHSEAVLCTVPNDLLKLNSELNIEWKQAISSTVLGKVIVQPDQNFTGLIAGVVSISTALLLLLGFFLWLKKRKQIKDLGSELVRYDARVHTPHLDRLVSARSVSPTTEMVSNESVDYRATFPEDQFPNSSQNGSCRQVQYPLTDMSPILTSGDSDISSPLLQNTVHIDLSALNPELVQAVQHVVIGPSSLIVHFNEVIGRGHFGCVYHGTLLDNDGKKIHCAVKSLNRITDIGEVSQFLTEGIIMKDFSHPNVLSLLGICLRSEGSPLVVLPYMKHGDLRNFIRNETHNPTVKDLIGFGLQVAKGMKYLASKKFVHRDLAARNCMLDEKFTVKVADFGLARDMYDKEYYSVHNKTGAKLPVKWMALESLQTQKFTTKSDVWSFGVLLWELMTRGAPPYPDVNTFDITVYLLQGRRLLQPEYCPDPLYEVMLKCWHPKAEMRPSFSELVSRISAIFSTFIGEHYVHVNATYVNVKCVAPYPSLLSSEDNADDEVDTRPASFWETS

IC50 [µM]	SMILES
1 to 10	O=C(Nc1nc2[nH]nc(-n3cncc3-c3c(Cl)cccc3Cl)c2s1)C1CC1 [Cyclopropanecarboxylic acid {3-[5-(2,6-dichloro-phenyl)-imidazol-1-yl]-1H-pyrazolo[3,4-d]thiazol-5-yl}-amide]
1 to 10	O=C(Nc1nc2[nH]nc(-n3cncc3-c3ccccc3Cl)c2s1)C1CC1 [Cyclopropanecarboxylic acid {3-[5-(2-chloro-phenyl)-imidazol-1-yl]-1H-pyrazolo[3,4-d]thiazol-5-yl}-amide]
> 10	O=C(Nc1nc2[nH]nc(-n3cncc3-c3cccc(F)c3F)c2s1)C1CC1 [Cyclopropanecarboxylic acid {3-[5-(2,3-difluoro-phenyl)-imidazol-1-yl]-1H-pyrazolo[3,4-d]thiazol-5-yl}-amide]
> 10	O=C(Nc1cc[nH]n1)Nc1nc2[nH]nc(-n3cncc3-c3ccccc3Cl)c2s1 [1-{3-[5-(2-Chloro-phenyl)-imidazol-1-yl]-1H-pyrazolo[3,4-d]thiazol-5-yl}-3-(1H-pyrazol-3-yl)-urea]
